Here are results for one compound from publication PMC8899516, “Structure-Activity Relationship Studies of 4-((4-(2-fluorophenyl)piperazin-1-yl)methyl)-6-imino-N-(naphthalen-2-yl)-1,3,5-triazin-2-amine (FPMINT) Analogues as Inhibitors of Human Equilibrative Nucleoside Transporters” (Frontiers in Pharmacology, 2022).

In one series the test system is PK15NTD/ENT1 cells. In words: Cell membrane integrity, LDH release. Format: cell-based, porcine. The following applies: 50 µM, 24 or 48 h. The protocol: (§1) PK15NTD/ENT1 and PK15NTD/ENT2 cells were seeded onto 96-well plates until they reached 80–90% confluent. The cells were then treated with different concentrations of compound 3c or an equivalent volume of a vehicle (0.5% dimethyl sulfoxide (DMSO), as a control) in a serum-free medium for another 24 or 48 h. For measuring cell membrane integrity, the lactate dehydrogenase (LDH) released into the culture medium was measured with a detection kit (Abcam, Cambridge, UK) according to the manufacturer’s instructions. The absorbance at 490 nm was measured with a microplate absorbance reader. For measuring cell viability, 0.5 mg/ml methylthiazolyldiphenyl-tetrazolium bromide (MTT) was added to each well. […] The absorbance was measured at 560 nm, with the absorbance at 655 nm serving as the background.
(§2) FIGURE 5 Effects of compound 3c on cytotoxicity and protein expressions of ENT1 and ENT2. Cytotoxicity of compound 3c was measured after 24 h or 48 h treatment of PK15NTD/ENT1 and PK15NTD/ENT2 cells with various concentrations of compound 3c (0.5, 5 and 50 μM) or a vehicle (0.5% DMSO, as a control) (A) The cell viability and (B) cell membrane integrity were determined by the MTT assay and LDH release, respectively (C) PK15NTD/ENT1 and (D) PK15NTD/ENT2 cells were incubated with 50 μM of compound 3c or a vehicle (0.5% DMSO, as a control) for 24 or 48 h. […]
On the technique in general: LDH leaks from cells whose membrane has failed.

For the next series, the system named is PK15NTD/ENT2 cells. In words: Cell membrane integrity, LDH release. Format: cell-based, porcine. The following applies: 50 µM, 24 or 48 h. The protocol: as §1, §2
Series [1] relates to ENT2. In words: Western blotting of ENT2 protein expression. The series is classed as cell-based, human. The following applies: 50 µM, 24 h or 48 h. The protocol:
PK15NTD/ENT1 and PK15NTD/ENT2 cells were grown to confluence in 10-cm culture dishes and treated with 50 µM of compound 3c or an equivalent volume of a vehicle (0.5% DMSO) for 24 h or 48 h. The cells were washed thrice with ice-cold PBS. Total protein was extracted by cell lysis in a lysis buffer (5 mM sodium monophosphate, pH 8) with a protease inhibitor cocktail (Sigma, St Louis, MO, United States; 1:1,000 [v/v]). The protein content was measured by bicinchoninic acid assay. Protein samples were separated by 12.5% sodium dodecyl sulfate–polyacrylamide gel electrophoresis (SDS-PAGE) and blotted onto polyvinylidene difluoride (PVDF) membranes. […] The membranes were then again washed, and the bound secondary antibodies were detected using an enhanced chemiluminescence kit (Bio-Rad, Hercules, CA, United States). […] To semi-quantify the ENT1 and ENT2 protein levels, the same membranes were washed three times with a stripping buffer for 10 min at room temperature, and the protein expression level of β-actin was measured using monoclonal mouse anti-β-actin primary antibodies (1:3,000 [v/v] dilution in a blocking solution). […]
FIGURE 5 Effects of compound 3c on cytotoxicity and protein expressions of ENT1 and ENT2. […] Total ENT1 and ENT2 from whole-cell lysates were also detected for a comparison. β-actin served as an internal reference. […]

The target in series [2] is T1, ENT2 (Homo sapiens, UniProt Q14542).
T1 construct: expressed in transfected cells
T1 sequence (Q14542 1-456): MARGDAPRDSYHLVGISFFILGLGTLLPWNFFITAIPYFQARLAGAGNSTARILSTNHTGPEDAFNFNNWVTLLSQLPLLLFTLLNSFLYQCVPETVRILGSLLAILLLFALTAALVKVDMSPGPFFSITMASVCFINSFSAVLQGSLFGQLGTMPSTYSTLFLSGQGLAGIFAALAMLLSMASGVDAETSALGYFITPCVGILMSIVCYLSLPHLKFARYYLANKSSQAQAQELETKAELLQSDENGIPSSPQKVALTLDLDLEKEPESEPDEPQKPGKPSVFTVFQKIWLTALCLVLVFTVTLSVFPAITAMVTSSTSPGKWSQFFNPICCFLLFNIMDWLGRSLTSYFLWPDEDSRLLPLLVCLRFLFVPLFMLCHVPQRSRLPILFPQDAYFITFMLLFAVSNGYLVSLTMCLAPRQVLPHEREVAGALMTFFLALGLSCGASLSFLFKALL
In words: Wash-out reversibility of [3H]uridine uptake inhibition in PK15NTD/ENT2 cells. The series is classed as cell-based. The following applies: 50 µM, incubation 1–60 min, washed five times. The method, then: To determine whether the inhibitory effects of compound 3c were reversible or irreversible, PK15NTD/ENT1 and PK15NTD/ENT2 cells were incubated with 50 µM of compound 3c for different time periods (1–60 min). The cells were then washed five times with buffer. After wash-out for every single time [^3H]uridine uptake was measured. […] The longer the incubation time with compound 3c, the more difficult it was to wash-out the inhibitory effects of compound 3c.
FIGURE 6 Reversibility of the inhibitory effects of compound 3c on ENT1 and ENT2 (A) PK15NTD/ENT1 and (B) PK15NTD/ENT2 cells were incubated with 50 μM of compound 3c or a vehicle (0.5% DMSO, as a control) for different time (0–60 min) The cells were then washed five times. After wash-out for every single time [^3H]uridine uptake (1 μM, 2 μCi/ml) was measured. Data are presented as mean ± SE of three experiments. ^* p < 0.05 compared with the fifth wash.

Structures are written as SMILES.

Turning to `Cc1cccc(Nc2nc(N)nc(CN3CCN(c4ccc(F)cc4)CC3)n2)c1` [Compound 3c], the cell membrane integrity result in the series with PK15NTD/ENT1 cells and in the series on PK15NTD/ENT2 cells was “No significant changes” each time. The “protein expression level of ENT2” value with ENT2 [1] is on record as “unaltered”. In addition, on ENT2 [2], the “reversibility of inhibitory effect on ENT2 by washing” value was “only partially reversed by washing”.
